Data taken from ChEMBL document CHEMBL5052847, “Identification of compounds that inhibit stress granule formation and tau aggregation by targeting tia1” (2021).
The source made the active and inactive calls. No cut-off for these calls is given here.

Experiments:
HT-22 = assay: Inhibition of TIA1 endogenously expressed in mouse HT-22 cells at 25 to 100 uM assessed as sodium arsenite-induced stress granule formation and measured by FRET assay relative to control; assay type: cell-based; details: dose 25-100 µM
Homo sapiens = organism: Homo sapiens; assay: Inhibition of recombinant TIA1 (unknown origin) multimerization measured by FRET assay

SMILES | inhibition (Homo sapiens) | inhibition (HT-22)
O=C(O)c1ccccc1NS(=O)(=O)c1cccc(-n2sc3ccccc3c2=O)c1 | Active | Active
O=c1c2ccccc2sn1-c1ccc(Cl)cc1 | Active | Active
CCN(CC)S(=O)(=O)c1cccc(-n2sc3ccccc3c2=O)c1 | Active | Active
O=c1c2ccccc2sn1-c1nccs1 | Active | Active
O=C1c2ccccc2S(=O)(=O)N1c1ccccc1F | Active | Active
O=c1c2ccccc2sn1-c1cccc(S(=O)(=O)Nc2ccc(Cl)cc2)c1 | Active | Active
Cc1ccc(C)c(-n2sc3cc(F)ccc3c2=O)c1 | Active | Active

More lines, main results first:

inhibition (Homo sapiens) | SMILES | inhibition (HT-22)
Active | O=c1c2ccccc2sn1-c1cccc(S(=O)(=O)N2CCCCCC2)c1 | Active
Active | Cc1cccc(-n2sc3ccccc3c2=O)c1 | Active
Active | CN(C)S(=O)(=O)c1cccc(-n2sc3ccccc3c2=O)c1 | Active
Active | O=c1c2ccccc2sn1-c1ccc(Cl)c(S(=O)(=O)N2CCOCC2)c1 | Active
